For data set [1], the target named is Proteinase-activated receptor 2 (Homo sapiens) (UniProt P55085). The data set can be described thus: Inhibition of PAR2-mediated SLIGKV-NH2-induced interleukin-8 production in normal human epidermal keratinocytes preincubated for 24 hrs by ELISA. On the technique in general: An ELISA detects its analyte on a solid surface through an enzyme-linked reagent.
Data set [2] in a line: Toxicity in normal human epidermal keratinocytes assessed as effect on cell viability at 10 uM after 72 hrs by colorimetric assay. Format: cell-based. The settings on record: keratinocyte.
Data set [3] in a line: Toxicity in normal human epidermal keratinocytes assessed as effect on cell viability at 100 uM after 72 hrs by colorimetric assay. The data set is classed as cell-based. The settings on record: keratinocyte.
Data set [4] has as its target Proteinase-activated receptor 2 (Homo sapiens) (UniProt P55085). The data set can be described thus: Inhibition of PAR2-mediated IL1-beta and SLIGKV-NH2-induced interleukin-8 production in normal human epidermal keratinocytes at 10 uM by ELISA.
Data set [5] shares this target. The data set can be described thus: Inhibition of PAR2-mediated SLIGKV-NH2-induced interleukin-8 production in normal human epidermal keratinocytes up to 100 uM preincubated for 24 hrs by ELISA.
Data set [6] relates to Keratinocyte. Description: Effect on PAR2 gene expression in normal human epidermal keratinocytes assessed as effect on cell viability at 100 uM after 72 hrs. Format: functional, cell-based.
The test system of data set [7] is Keratinocyte. The data set can be described thus: Effect on PAR2 gene expression in normal human epidermal keratinocytes assessed as effect on cell viability at 10 uM after 72 hrs. Format: functional, cell-based.
The target in data set [8] is Proteinase-activated receptor 2 (Homo sapiens) (UniProt P55085). Description: Inhibition of PAR2-mediated SLIGKV-NH2-induced interleukin-8 production in normal human epidermal keratinocytes at 5 uM preincubated for 24 hrs by ELISA.
The target is the same in data set [9]. The data set can be described thus: Inhibition of PAR2-mediated SLIGKV-NH2-induced interleukin-8 production in normal human epidermal keratinocytes at 10 uM preincubated for 24 hrs by ELISA.
For data set [10] the target is unchanged. Description: Inhibition of PAR2-mediated SLIGKV-NH2-induced interleukin-8 production in normal human epidermal keratinocytes at 100 uM preincubated for 24 hrs by ELISA.

Our source for the inhibition and Activity values is ChEMBL document CHEMBL1255296, “Effect of 14-membered-ring macrolides on production of interleukin-8 mediated by protease-activated receptor 2 in human keratinocytes” (Antimicrob Agents Chemother, 2008).

Calls of active or inactive are those of the source. No cut-off for these calls is given here.

Chain of Proteinase-activated receptor 2 (Homo sapiens) (P55085 whole entry): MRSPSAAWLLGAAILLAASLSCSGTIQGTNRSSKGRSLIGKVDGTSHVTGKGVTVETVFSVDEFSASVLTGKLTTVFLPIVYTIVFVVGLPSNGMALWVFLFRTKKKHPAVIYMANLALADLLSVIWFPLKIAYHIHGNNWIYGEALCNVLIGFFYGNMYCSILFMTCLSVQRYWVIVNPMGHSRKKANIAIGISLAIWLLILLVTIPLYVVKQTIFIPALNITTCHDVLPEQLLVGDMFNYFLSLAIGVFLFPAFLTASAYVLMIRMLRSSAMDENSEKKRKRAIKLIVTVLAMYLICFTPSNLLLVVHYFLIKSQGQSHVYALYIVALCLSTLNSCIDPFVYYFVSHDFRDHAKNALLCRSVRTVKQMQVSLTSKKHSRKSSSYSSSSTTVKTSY

In the case of `CO[C@@H]1[C@@H](O[C@@H]2O[C@H](C)[C@@H](O[C@H]3C[C@@](C)(O)[C@@H](OC(=O)CC(C)C)[C@H](C)O3)[C@H](N(C)C)[C@H]2O)[C@@H](CC=O)C[C@@H](C)[C@@H](O)/C=C/C=C/C[C@@H](C)OC(=O)C[C@H]1OC(C)=O`, the inhibition result in [1] is “inactive”.

`CO[C@H]1C[C@H](O[C@H]2[C@H](C)[C@@H](O[C@@H]3O[C@H](C)C[C@H](N(C)C)[C@H]3O)[C@@H](C)C[C@@]3(CO3)C(=O)[C@H](C)[C@@H](O)[C@@H](C)[C@@H](C)OC(=O)[C@@H]2C)O[C@@H](C)[C@@H]1O`: in [1], the inhibition entry is “inactive”.

Consider `CC[C@H]1OC(=O)[C@H](C)[C@@H](O[C@H]2C[C@@](C)(OC)[C@@H](O)[C@H](C)O2)[C@H](C)[C@@H](O[C@@H]2O[C@H](C)C[C@H](N(C)C)[C@H]2O)[C@](C)(OC)C[C@@H](C)C(=O)[C@H](C)[C@@H](O)[C@]1(C)O` [CLARITHROMYCIN], for which the Activity result in data set [2] and in data set [3] was “Non-toxic” in each case. In addition, the inhibition result in data set [4] was “Active”. In addition, the inhibition entry in data set [5] was “inactive”. Further, the result in the data set with Keratinocyte [6] and in the data set with Keratinocyte [7] was inactive.

As to `CC[C@H]1OC(=O)[C@H](C)[C@@H](O[C@H]2C[C@@](C)(OC)[C@@H](O)[C@H](C)O2)[C@H](C)[C@@H](O[C@@H]2O[C@H](C)C[C@H](N(C)C)[C@H]2O)[C@](C)(O)C[C@@H](C)C(=O)[C@H](C)[C@@H](O)[C@]1(C)O` [ERYTHROMYCIN], the inhibition entry in data set [8], in data set [4], in [9] and in [10] was “Active” throughout. Besides, the Activity result in [2] and in [3] was “Non-toxic” throughout. The result in the data set on Keratinocyte [6] and in the data set with Keratinocyte [7] was inactive.

Take `CC[C@H]1OC(=O)[C@H](C)[C@@H](O[C@H]2C[C@@](C)(OC)[C@@H](O)[C@H](C)O2)[C@H](C)[C@@H](O[C@@H]2O[C@H](C)C[C@H](N(C)C)[C@H]2O)[C@](C)(O)C[C@@H](C)/C(=N\OCOCCOC)[C@H](C)[C@@H](O)[C@]1(C)O` [ROXITHROMYCIN]: the Activity result in data set [2] and in data set [3] was “Non-toxic” in each case. Further, the inhibition entry in data set [4], in data set [9] and in data set [10] was “Active” throughout. Further, the result with Keratinocyte [6] and with Keratinocyte [7] was inactive.

For the compound SPIRAMYCIN, the inhibition entry in data set [1] is “inactive”.
